Calls of active or inactive are those of the source. The rule behind the calls is not given here.
Tests used:
[1] = biological target: T1, B2 bradykinin receptor (Homo sapiens) (UniProt P30411); assay: Inhibition of human recombinant B2 bradykinin receptor at 10 uM by radioligand binding assay
T1 sequence (whole entry): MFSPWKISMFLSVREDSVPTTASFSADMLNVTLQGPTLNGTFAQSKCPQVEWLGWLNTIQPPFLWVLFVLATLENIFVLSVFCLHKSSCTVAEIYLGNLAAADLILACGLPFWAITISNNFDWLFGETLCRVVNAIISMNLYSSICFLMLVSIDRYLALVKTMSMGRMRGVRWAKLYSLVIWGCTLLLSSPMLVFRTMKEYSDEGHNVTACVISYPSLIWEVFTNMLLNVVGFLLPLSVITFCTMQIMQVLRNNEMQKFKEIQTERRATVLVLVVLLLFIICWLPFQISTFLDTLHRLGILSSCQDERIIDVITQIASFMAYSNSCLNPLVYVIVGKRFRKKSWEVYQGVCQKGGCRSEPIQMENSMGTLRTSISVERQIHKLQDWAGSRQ

[2] = biological target: T2, 5-hydroxytryptamine receptor 1A (Homo sapiens) (UniProt P08908); assay: Inhibition of human recombinant 5HT1A receptor at 10 uM by radioligand binding assay
T2 sequence (whole entry): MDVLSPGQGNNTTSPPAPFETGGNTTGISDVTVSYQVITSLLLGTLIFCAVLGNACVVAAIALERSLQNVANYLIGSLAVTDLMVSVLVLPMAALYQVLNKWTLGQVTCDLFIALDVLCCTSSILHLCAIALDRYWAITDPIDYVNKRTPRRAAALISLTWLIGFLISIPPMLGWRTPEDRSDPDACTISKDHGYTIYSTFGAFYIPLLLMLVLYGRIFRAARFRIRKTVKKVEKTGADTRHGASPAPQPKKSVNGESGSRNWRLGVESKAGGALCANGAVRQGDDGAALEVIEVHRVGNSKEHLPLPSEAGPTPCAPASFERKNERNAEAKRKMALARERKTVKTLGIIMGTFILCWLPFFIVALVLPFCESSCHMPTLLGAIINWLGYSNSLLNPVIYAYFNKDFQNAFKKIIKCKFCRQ

[3] = biological target: Neurotensin receptor type 1 (Homo sapiens) (UniProt P30989); assay: Inhibition of human recombinant NTS1 receptor at 10 uM by radioligand binding assay
Neurotensin receptor type 1 (Homo sapiens), sequence (P30989 whole entry): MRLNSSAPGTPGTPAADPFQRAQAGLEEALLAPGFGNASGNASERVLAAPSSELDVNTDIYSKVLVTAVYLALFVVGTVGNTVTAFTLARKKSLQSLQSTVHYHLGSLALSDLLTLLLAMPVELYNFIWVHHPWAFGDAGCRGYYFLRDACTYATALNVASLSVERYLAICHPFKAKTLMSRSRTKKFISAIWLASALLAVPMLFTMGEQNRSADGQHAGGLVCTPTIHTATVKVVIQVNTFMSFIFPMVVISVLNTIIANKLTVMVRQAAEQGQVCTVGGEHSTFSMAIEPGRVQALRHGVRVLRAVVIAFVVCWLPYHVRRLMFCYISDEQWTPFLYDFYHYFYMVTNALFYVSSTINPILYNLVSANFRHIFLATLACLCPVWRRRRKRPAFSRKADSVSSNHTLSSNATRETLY

[4] = biological target: T3, Cholecystokinin receptor type A (Homo sapiens) (UniProt P32238); assay: Inhibition of human recombinant CCK1 receptor at 10 uM by radioligand binding assay
T3 sequence (whole entry): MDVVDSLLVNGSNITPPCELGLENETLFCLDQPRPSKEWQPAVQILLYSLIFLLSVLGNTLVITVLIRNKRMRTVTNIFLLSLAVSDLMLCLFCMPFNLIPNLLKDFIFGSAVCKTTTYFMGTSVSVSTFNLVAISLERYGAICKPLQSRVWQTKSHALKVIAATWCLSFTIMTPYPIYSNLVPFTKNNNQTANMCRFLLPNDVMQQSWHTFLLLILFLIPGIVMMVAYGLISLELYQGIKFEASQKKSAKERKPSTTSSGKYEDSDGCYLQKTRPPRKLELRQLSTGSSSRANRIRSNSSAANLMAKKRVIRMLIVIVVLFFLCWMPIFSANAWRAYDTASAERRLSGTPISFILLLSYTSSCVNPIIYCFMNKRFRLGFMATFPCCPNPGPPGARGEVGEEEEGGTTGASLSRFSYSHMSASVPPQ

[5] = biological target: T4, C-X-C chemokine receptor type 2 (Homo sapiens) (UniProt P25025); assay: Inhibition of human recombinant CXCR2 receptor at 10 uM by radioligand binding assay
T4 sequence (whole entry): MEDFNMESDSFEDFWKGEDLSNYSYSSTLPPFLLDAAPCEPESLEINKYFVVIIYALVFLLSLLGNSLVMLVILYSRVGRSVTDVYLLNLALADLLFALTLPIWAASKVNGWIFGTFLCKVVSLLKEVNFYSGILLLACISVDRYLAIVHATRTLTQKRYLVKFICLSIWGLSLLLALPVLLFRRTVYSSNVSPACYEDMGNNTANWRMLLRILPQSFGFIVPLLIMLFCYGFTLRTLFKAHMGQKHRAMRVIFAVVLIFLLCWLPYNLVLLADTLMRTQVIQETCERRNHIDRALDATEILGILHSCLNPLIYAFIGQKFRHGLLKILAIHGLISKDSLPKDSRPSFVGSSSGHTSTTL

[6] = species: Homo sapiens; assay: Inhibition of human recombinant Dop delta2 receptor at 10 uM by radioligand binding assay
[7] = biological target: Vasopressin V1a receptor (Homo sapiens) (UniProt P37288); assay: Inhibition of human recombinant V1a receptor at 10 uM by radioligand binding assay
Vasopressin V1a receptor (Homo sapiens), sequence (P37288 whole entry, looked up): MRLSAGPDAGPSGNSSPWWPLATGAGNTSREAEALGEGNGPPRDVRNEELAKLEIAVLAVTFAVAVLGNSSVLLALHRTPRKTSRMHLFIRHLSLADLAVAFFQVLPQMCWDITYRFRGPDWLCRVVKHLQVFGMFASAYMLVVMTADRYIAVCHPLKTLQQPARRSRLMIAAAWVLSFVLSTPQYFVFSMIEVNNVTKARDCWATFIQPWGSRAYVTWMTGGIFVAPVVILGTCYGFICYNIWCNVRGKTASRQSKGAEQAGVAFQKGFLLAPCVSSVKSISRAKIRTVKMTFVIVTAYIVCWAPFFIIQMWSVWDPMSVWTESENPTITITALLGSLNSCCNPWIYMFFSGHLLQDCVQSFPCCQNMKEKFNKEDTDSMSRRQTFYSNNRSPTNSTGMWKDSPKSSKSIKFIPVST

[8] = biological target: Melanocortin receptor 4 (Homo sapiens) (UniProt P32245); assay: Inhibition of human recombinant MC4 receptor at 10 uM by radioligand binding assay
Melanocortin receptor 4 (Homo sapiens), sequence (P32245 whole entry): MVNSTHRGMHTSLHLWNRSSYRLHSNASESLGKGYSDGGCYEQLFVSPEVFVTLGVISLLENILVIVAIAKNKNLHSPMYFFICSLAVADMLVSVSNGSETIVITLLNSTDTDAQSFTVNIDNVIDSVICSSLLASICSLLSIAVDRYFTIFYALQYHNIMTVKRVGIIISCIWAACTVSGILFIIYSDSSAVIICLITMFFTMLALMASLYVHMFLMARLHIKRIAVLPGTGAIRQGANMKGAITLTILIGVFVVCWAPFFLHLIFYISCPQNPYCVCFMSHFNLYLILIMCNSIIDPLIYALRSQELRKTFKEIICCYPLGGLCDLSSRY

[9] = biological target: Nociceptin receptor (Homo sapiens) (UniProt P41146); assay: Inhibition of human recombinant NOP receptor at 10 uM by radioligand binding assay
Nociceptin receptor (Homo sapiens), sequence (P41146 whole entry): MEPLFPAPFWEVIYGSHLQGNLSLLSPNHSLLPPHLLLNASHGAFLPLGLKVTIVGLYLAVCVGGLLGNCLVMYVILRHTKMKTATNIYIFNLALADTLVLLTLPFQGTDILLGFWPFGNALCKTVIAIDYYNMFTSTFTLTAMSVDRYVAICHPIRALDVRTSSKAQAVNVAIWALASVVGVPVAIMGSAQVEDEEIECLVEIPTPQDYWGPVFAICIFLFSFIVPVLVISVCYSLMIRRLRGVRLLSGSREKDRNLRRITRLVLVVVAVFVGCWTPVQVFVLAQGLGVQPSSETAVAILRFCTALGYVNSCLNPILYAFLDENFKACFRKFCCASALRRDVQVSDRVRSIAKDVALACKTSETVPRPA

[10] = biological target: 5-hydroxytryptamine receptor 1B (Homo sapiens) (UniProt P28222); assay: Inhibition of human recombinant 5HT1B receptor at 10 uM by radioligand binding assay
5-hydroxytryptamine receptor 1B (Homo sapiens), sequence (P28222 whole entry): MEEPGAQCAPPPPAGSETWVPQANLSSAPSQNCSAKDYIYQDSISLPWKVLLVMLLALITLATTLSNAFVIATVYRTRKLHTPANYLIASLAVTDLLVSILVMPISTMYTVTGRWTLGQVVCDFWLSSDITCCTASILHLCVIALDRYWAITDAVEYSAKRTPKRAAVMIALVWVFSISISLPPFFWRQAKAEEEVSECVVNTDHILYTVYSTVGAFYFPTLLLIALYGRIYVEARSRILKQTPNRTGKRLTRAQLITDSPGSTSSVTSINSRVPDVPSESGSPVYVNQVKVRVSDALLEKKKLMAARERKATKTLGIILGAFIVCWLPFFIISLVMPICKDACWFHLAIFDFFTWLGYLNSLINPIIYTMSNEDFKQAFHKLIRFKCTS

[11] = biological target: T5, Type-1 angiotensin II receptor (Homo sapiens) (UniProt P30556); assay: Inhibition of human recombinant AT1 receptor at 10 uM by radioligand binding assay
T5 sequence (whole entry): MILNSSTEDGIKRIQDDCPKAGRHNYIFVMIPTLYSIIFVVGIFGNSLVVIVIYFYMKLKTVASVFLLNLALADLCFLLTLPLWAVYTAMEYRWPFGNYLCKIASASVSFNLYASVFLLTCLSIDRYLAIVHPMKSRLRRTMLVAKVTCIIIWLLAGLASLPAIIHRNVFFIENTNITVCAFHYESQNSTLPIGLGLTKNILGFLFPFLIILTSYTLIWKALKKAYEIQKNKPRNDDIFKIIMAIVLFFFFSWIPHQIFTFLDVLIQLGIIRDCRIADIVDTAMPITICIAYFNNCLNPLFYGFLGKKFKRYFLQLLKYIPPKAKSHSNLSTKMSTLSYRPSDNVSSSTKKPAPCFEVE

[12] = species: Homo sapiens; assay: Inhibition of human recombinant GABA receptor at 10 uM by radioligand binding assay
[13] = biological target: D(1A) dopamine receptor (Homo sapiens) (UniProt P21728); assay: Inhibition of human recombinant D1 receptor at 10 uM by radioligand binding assay
D(1A) dopamine receptor (Homo sapiens), sequence (P21728 whole entry): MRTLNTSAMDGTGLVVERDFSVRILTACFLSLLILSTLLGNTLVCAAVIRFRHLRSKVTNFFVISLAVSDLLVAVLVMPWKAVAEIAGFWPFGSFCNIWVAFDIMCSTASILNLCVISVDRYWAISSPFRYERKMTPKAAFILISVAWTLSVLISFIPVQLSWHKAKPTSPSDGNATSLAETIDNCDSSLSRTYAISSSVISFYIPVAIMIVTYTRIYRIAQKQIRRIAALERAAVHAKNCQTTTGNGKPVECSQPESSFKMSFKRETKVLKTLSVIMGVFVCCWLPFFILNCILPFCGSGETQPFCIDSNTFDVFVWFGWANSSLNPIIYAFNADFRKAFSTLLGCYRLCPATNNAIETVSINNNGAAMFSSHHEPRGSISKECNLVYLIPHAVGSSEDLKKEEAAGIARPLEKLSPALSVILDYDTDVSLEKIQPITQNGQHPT

[14] = biological target: 5-hydroxytryptamine receptor 5A (Homo sapiens) (UniProt P47898); assay: Inhibition of human recombinant 5HT5A receptor at 10 uM by radioligand binding assay
5-hydroxytryptamine receptor 5A (Homo sapiens), sequence (P47898 whole entry): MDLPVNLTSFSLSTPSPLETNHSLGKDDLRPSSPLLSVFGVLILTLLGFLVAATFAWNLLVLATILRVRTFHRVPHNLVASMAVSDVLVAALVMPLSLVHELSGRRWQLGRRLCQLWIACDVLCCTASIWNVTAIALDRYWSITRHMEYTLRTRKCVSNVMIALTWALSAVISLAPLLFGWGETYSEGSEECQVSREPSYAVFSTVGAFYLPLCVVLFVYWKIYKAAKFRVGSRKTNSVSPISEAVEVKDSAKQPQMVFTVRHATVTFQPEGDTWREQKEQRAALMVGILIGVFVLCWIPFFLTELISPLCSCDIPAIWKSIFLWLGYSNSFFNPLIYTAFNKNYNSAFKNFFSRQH

[15] = test system: Voltage-gated potassium channel; assay: Inhibition of human recombinant Kv channel at 10 uM by radioligand binding assay; assay type: protein assay
[16] = biological target: Voltage-gated L-type calcium channel (Homo sapiens, UniProt Q13936+Q13698+Q01668+O60840); assay: Inhibition of human recombinant L-type Ca2+ channel at 10 uM by radioligand binding assay
[17] = species: Homo sapiens; assay: Inhibition of human recombinant sst receptor at 10 uM by radioligand binding assay
[18] = test system: Neuropeptide Y receptor type 1; assay: Inhibition of human recombinant Y1 receptor at 10 uM by radioligand binding assay

Row | inhibition [1] | inhibition [2] | inhibition [3] | inhibition [4] | inhibition [5] | inhibition [6] | inhibition [7] | inhibition [8] | inhibition [9] | inhibition [10] | inhibition [11] | inhibition [12] | inhibition [13] | inhibition [14] | inhibition (INH) [15] | inhibition (INH) [16] | inhibition [17] | inhibition [18] | SMILES
1 | inactive | inactive | inactive | inactive | inactive | Active | inactive | inactive | inactive | inactive | inactive | inactive | inactive | inactive | Not Active | Not Active | inactive |  | Cc1cc(C(N)=O)ccc1-n1c(CCC(=O)O)ccc1-c1ccc(-n2ccnc2)cc1 [N6022]
2 | inactive | inactive | inactive | inactive | inactive | Active | inactive | inactive | inactive | inactive | inactive | inactive | inactive | inactive | Not Active | Not Active | inactive | inactive | Cc1cc(C(N)=O)ccc1-c1c(-c2ccc(-n3ccnc3)cc2)ccn1CCC(=O)O
3 | inactive | inactive | inactive | inactive | inactive | Active | inactive | inactive | inactive | inactive | inactive | inactive | inactive | inactive | Not Active | Not Active | inactive | inactive | Cc1cc(C(N)=O)ccc1-c1c(CCC(=O)O)ccn1-c1ccc(-n2ccnc2)cc1

Second part, the compound before the results:

Row | SMILES | inhibition [1] | inhibition [2] | inhibition [3] | inhibition [4] | inhibition [5] | inhibition [6] | inhibition [7] | inhibition [8] | inhibition [9] | inhibition [10] | inhibition [11] | inhibition [12] | inhibition [13] | inhibition [14] | inhibition (INH) [15] | inhibition (INH) [16] | inhibition [17] | inhibition [18]
4 | COc1ccc(-c2ccn(-c3ccc(C(=O)O)c(O)c3)c2-c2ccc(C(N)=O)cc2C)cc1 | Active | Active | Active | Active | Active | Active | Active | Active | Active | Active | Active | Active | Active | Active | Active | Active | Active | Active
5 | COc1ccc(-c2ccn(-c3ccc(O)c([N+](=O)[O-])c3)c2-c2ccc(C(N)=O)cc2C)cc1 | Active | Active | Active | Active | Active | Active | Active | Active | Active | Active | Active | Active | Active | Active | Active | Active | Active | Active
